Experimental data taken from patent publication US8952034B2, “Fused heterocyclic compounds as ion channel modulators” (Gilead Sciences, Inc., priority 2009, dated 2015).

What follows are molecules tested against wild-type human cardiac sodium channel, hNav1.5 (Homo sapiens, UniProt Q14524) (assay: Late INa screening assay (automated whole cell patch clamp, PatchXpress)). Settings: compound at 1 μM; HEK293 cells expressing hNav1.5; late INa generated with 10 μM Tefluthrin (or 50 nM ATX II); read-out: LateINa_1 uM (percent block of late INa).
Type: cell-based
Summary of the method: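 Late sodium current through wild-type human hNav1.5 stably expressed in HEK293 cells (no beta subunits) was recorded by automated whole-cell patch clamp on a PatchXpress 7000A at 24-27° C. Late INa was induced with 10 μM Tefluthrin or 50 nM ATX II. Cells were stepped from −120 mV to −20 mV for 250 ms at 0.1 Hz, and percent block was normalized to current in Na-free extracellular solution.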

Chain of wild-type human cardiac sodium channel, hNav1.5 (Q14524 whole entry): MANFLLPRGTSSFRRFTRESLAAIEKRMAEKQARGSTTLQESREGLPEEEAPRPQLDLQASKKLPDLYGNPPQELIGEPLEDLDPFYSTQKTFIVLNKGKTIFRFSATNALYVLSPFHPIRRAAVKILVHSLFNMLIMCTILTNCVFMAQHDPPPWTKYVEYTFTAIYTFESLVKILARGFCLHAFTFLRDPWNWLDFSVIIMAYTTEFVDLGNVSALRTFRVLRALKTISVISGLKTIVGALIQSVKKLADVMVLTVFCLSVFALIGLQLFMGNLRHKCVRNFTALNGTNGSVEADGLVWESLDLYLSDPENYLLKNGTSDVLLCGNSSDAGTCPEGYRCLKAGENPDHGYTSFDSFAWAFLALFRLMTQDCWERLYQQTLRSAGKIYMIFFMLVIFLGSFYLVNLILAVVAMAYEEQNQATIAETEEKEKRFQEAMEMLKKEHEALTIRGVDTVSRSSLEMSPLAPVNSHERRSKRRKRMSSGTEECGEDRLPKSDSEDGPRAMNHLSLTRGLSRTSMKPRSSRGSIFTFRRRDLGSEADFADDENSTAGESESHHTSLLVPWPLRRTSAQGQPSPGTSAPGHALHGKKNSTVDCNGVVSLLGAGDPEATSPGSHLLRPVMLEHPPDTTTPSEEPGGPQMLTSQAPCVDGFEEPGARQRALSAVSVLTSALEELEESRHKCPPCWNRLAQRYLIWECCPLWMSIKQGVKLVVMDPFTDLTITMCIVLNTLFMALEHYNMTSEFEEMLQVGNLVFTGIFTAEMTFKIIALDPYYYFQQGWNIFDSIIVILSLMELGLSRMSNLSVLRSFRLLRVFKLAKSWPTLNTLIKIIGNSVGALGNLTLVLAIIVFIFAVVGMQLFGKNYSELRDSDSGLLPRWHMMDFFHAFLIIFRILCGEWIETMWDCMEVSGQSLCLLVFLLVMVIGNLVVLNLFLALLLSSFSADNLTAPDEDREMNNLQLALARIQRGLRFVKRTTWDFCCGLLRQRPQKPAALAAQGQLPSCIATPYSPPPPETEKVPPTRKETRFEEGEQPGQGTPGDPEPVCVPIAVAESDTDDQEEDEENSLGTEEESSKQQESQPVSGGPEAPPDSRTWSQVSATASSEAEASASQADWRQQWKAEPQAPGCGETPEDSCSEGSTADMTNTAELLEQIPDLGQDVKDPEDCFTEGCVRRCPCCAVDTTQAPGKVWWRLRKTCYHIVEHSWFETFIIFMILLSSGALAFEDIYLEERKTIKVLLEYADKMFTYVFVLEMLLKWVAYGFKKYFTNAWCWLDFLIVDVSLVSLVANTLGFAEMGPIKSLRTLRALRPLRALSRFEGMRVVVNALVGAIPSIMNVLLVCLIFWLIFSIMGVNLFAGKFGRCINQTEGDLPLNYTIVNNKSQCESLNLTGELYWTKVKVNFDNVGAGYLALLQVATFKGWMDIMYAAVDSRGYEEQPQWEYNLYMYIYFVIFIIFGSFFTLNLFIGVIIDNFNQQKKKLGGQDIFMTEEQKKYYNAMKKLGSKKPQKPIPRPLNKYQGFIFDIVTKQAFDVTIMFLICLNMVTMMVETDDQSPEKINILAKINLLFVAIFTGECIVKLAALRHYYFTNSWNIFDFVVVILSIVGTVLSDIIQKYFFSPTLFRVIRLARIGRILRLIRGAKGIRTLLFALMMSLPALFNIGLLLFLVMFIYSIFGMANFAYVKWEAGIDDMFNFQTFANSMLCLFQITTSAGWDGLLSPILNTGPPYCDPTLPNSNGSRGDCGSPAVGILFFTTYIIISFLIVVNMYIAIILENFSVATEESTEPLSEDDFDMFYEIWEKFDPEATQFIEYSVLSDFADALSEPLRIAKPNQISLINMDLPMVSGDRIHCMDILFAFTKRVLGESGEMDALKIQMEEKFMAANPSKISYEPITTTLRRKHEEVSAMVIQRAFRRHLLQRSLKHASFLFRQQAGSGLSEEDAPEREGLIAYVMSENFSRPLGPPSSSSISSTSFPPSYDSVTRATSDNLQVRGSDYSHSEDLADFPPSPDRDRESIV

Going from FC(F)(F)c1nnc2ccc(-c3ccc(NC(c4ccccc4)C(F)(F)F)cc3)cn12 (stereo not shown) [BHN-123, 4-[3-(trifluoromethyl)[1,2,4]triazolo[4,3-a]pyridin-6-yl]-N-(2,2,2-trifluoro-1-phenylethyl)aniline] to FC(F)(F)Oc1ccc(-c2ccc3nnc(Sc4ccccc4)n3c2)cc1 [BHN-170, 3-(phenylsulfanyl)-6-[4-(trifluoromethoxy)phenyl][1,2,4]triazolo[4,3-a]pyridine], the inhibition at 1 µM rises from 23.4% to 66.2%.

Compared with CC(O)C(F)(F)c1nnc2ccc(-c3ccc(OC(F)(F)F)cc3)cn12 (stereo not shown) [BHN-165, 1,1-difluoro-1-{6-[4-(trifluoromethoxy)phenyl][1,2,4]triazolo[4,3-a]pyridin-3-yl}propan-2-ol], FC(F)(F)Oc1ccc(-c2ccc3nnc(C(F)(F)Cl)n3c2)cc1 [BHN-308, 3-[chloro(difluoro)methyl]-6-[4-(trifluoromethoxy)phenyl][1,2,4]triazolo[4,3-a]pyridine] is higher in inhibition at 1 µM: 28.1% for the first, 71.2% for the second.

Compared with C/C(=C\C#N)c1ccc(-c2ccc3nnc(C(F)(F)F)n3c2)cc1 [BHN-169, (2E)-3-{4-[3-(trifluoromethyl)[1,2,4]triazolo[4,3-a]pyridin-6-yl]phenyl}but-2-enenitrile], FC(F)(F)c1nnc2ccc(-c3ccc(Oc4ccncc4)cc3)cn12 [BHN-113, 6-[4-(pyridin-4-yloxy)phenyl]-3-(trifluoromethyl)[1,2,4]triazolo[4,3-a]pyridine] is lower in inhibition at 1 µM: 30.5% for the first, 20.1% for the second.

First: Cc1c(-c2ccc(OC(F)(F)F)cc2)ccc2nnc(C(F)(F)F)n12 [BHN-202, 5-methyl-6-[4-(trifluoromethoxy)phenyl]-3-(trifluoromethyl)[1,2,4]triazolo[4,3-a]pyridine]
Second: Cc1noc(-c2cc(-c3ccc4nnc(C(F)(F)F)n4c3)ccc2OC(F)(F)F)n1 [BHN-182, 6-[3-(3-methyl-1,2,4-oxadiazol-5-yl)-4-(trifluoromethoxy)phenyl]-3-(trifluoromethyl)[1,2,4]triazolo[4,3-a]pyridine]
The inhibition at 1 µM of the first is higher: 74.2% for the first, 18.9% for the second.

Compared with Cn1nc(C2CC2)cc1COC(F)(F)c1nnc2ccc(-c3ccc(OC(F)(F)F)cc3)cn12 [BHN-266, 3-{[(3-cyclopropyl-1-methyl-1H-pyrazol-5-yl)methoxy](difluoro)methyl}-6-[4-(trifluoromethoxy)phenyl][1,2,4]triazolo[4,3-a]pyridine], FC(F)(F)Oc1ccc(-c2ccc3nnc(C(F)(F)OCc4cccc(-n5cnc(C6CC6)c5)c4)n3c2)cc1 [BHN-317, 3-[{[3-(4-cyclopropyl-1H-imidazol-1-yl)benzyl]oxy}(difluoro)methyl]-6-[4-(trifluoromethoxy)phenyl][1,2,4]triazolo[4,3-a]pyridine] is lower in inhibition at 1 µM: 50.2% for the first, 46.4% for the second.

First: FC(F)(F)COc1ccc(-c2ccc3cnc(C(F)(F)F)n3c2)cc1 [BHN-28, 6-[4-(2,2,2-trifluoroethoxy)phenyl]-3-(trifluoromethyl)imidazo[1,5-a]pyridine]
Second: FC(F)(F)Oc1ccc(-c2ccc3nnc(C(F)(F)OCc4cccc(-c5cccnc5)c4)n3c2)cc1 [BHN-306, 3-(difluoro{[3-(pyridin-3-yl)benzyl]oxy}methyl)-6-[4-(trifluoromethoxy)phenyl][1,2,4]triazolo[4,3-a]pyridine]
The inhibition at 1 µM of the first is lower: 46.1% for the first, 49.7% for the second.

Cc1ccc(COCc2nnc3ccc(-c4ccc(OC(F)(F)F)cc4)cn23)c(C)c1 [BHN-251, 3-{[(2,4-dimethylbenzyl)oxy]methyl}-6-[4-(trifluoromethoxy)phenyl][1,2,4]triazolo[4,3-a]pyridine] gave an inhibition at 1 µM of 75.8%.

Same assay, conditions: compound at 10 μM; HEK293 cells expressing hNav1.5; late INa generated with 10 μM Tefluthrin (or 50 nM ATX II); read-out: LateINa_10 uM (percent block of late INa)

Going from CCNc1nnc2ccc(-c3ccc(OC(F)(F)F)cc3)cn12 [BHN-331, N-ethyl-6-[4-(trifluoromethoxy)phenyl][1,2,4]triazolo[4,3-a]pyridin-3-amine] to CC(C)S(=O)(=O)c1ccc(-c2ccc3nnc(C(F)(F)F)n3c2)cc1 [BHN-68, 6-[4-(propan-2-ylsulfonyl)phenyl]-3-(trifluoromethyl)[1,2,4]triazolo[4,3-a]pyridine], the inhibition at 10 µM falls from 38.2% to 22%.

With FC(F)(F)COc1ccc(-c2ccc3cnc(C(F)(F)F)n3c2)cc1 [BHN-28, 6-[4-(2,2,2-trifluoroethoxy)phenyl]-3-(trifluoromethyl)imidazo[1,5-a]pyridine] the inhibition at 10 µM was 78.3%.
